# Patent US8183262B2, “Pyridine derivatives as mGluR2 antagonists” (Hoffmann-La Roche Inc., priority 2007, dated 2012)
row,SMILES,melting point
1,"Cc1cc(-c2ccc(C(F)(F)F)cc2)cc(-c2cccc(-c3cccc(S(=O)(=O)N4CCS(=O)(=O)CC4)c3)n2)n1 [Example 368, 6′-[3-(1,1-Dioxo-1λ6-thiomorpholine-4-sulfonyl)-phenyl]-6-methyl-4-(4-trifluoromethyl-phenyl)-[2,2′]bipyridinyl]",230 °C (dec.)
2,"Cc1cc(-c2ccc(C(F)(F)F)cc2)cc(-c2cccc(-c3cccc(S(=O)(=O)N4CCCC4)c3)n2)n1 [Example 369, 6-Methyl-6′-[3-(pyrrolidine-1-sulfonyl)-phenyl]-4-(4-trifluoromethyl-phenyl)-[2,2′]bipyridinyl]",174 °C
3,"Cc1cc(-c2ccc(C(F)(F)F)cc2)cc(-c2cccc(-c3cccc(S(=O)(=O)N4CCN(C)CC4)c3)n2)n1 [Example 370, 6-Methyl-6′-[3-(4-methyl-piperazine-1-sulfonyl)-phenyl]-4-(4-trifluoromethyl-phenyl)-[2,2′]bipyridinyl]",167 °C (dec.)
4,"COCCNS(=O)(=O)c1cccc(-c2cccc(-c3cc(-c4ccc(C(F)(F)F)cc4)cc(C)n3)n2)c1 [Example 371, N-(2-Methoxy-ethyl)-3-[6′-methyl-4′-(4-trifluoromethyl-phenyl)-[2,2′]bipyridinyl-6-yl]-benzenesulfonamide]",126 °C
5,"Cc1cc(-c2ccc(C(F)(F)F)cc2)cc(-c2cccc(-c3cccc(S(=O)(=O)NCCOCCO)c3)n2)n1 [Example 372, N-[2-(2-Hydroxy-ethoxy)-ethyl]-3-[6′-methyl-4′-(4-trifluoromethyl-phenyl)-[2,2′]bipyridinyl-6-yl]-benzenesulfonamide]",123 °C
6,"Cc1cc(-c2ccc(C(F)(F)F)cc2)cc(-c2cccc(-c3cccc(S(=O)(=O)N4CCOCC4)c3)n2)n1 [Example 373, 6-Methyl-6′-[3-(morpholine-4-sulfonyl)-phenyl]-4-(4-trifluoromethyl-phenyl)-[2,2′]bipyridinyl]",216 °C
7,"CCC(=O)NS(=O)(=O)c1cccc(-c2cc(-c3nc(-c4ccc(C(F)(F)F)cc4)cc(C(F)(F)F)n3)ccn2)c1 [Example 374, N-Propionyl-3-{4-[4-trifluoromethyl-6-(4-trifluoromethyl-phenyl)-pyrimidin-2-yl]-pyridin-2-yl}-benzenesulfonamide]",144 °C
8,"CCC(=O)NS(=O)(=O)c1ccc(-c2cc(-c3nc(-c4ccc(C(F)(F)F)cc4)cc(C(F)(F)F)n3)ccn2)s1 [Example 375, 5-{4-[4-Trifluoromethyl-6-(4-trifluoromethyl-phenyl)-pyrimidin-2-yl]-pyridin-2-yl}-thiophene-2-sulfonic acid propionyl-amide]",257 °C
9,"Cc1cc(-c2ccc(Cl)c(C)c2)nc(-c2cccc(-c3ccc(N)nc3)c2)n1 [Example 376, 5-{3-[4-(4-Chloro-3-methyl-phenyl)-6-methyl-pyrimidin-2-yl]-phenyl}-pyridin-2-ylamine]",158 °C (dec.)
10,"Nc1ccc(-c2cn(-c3nc(-c4ccc(F)cc4)cc(C(F)(F)F)n3)cn2)cn1 [Example 378, 5-{1-[4-(4-Fluoro-phenyl)-6-trifluoromethyl-pyrimidin-2-yl]-1H-imidazol-4-yl}-pyridin-2-ylamine]",249.5 °C
11,"Cc1cc(-c2ccc(Cl)c(C)c2)nc(-c2cccc(-c3cccc(S(N)(=O)=O)c3)c2)n1 [Example 379, 3′-[4-(4-Chloro-3-methyl-phenyl)-6-methyl-pyrimidin-2-yl]-biphenyl-3-sulfonic acid amide]",201 °C
12,"Cc1cc(-c2ccc(Cl)c(C)c2)nc(-c2cccc(-c3ccc(S(N)(=O)=O)s3)c2)n1 [Example 380, 5-{3-[4-(4-Chloro-3-methyl-phenyl)-6-methyl-pyrimidin-2-yl]-phenyl}-thiophene-2-sulfonic acid amide]",240 °C
13,"O=S(=O)(NCCO)c1cccc(-c2cc(-c3nc(-c4ccc(C(F)(F)F)cc4)cc(C(F)(F)F)n3)ccn2)c1 [Example 381, N-(2-Hydroxy-ethyl)-3-{4-[4-trifluoromethyl-6-(4-trifluoromethyl-phenyl)-pyrimidin-2-yl]-pyridin-2-yl}-benzenesulfonamide]",192.5 °C
14,"CC(C)(CO)NS(=O)(=O)c1cccc(-c2cc(-c3nc(-c4ccc(C(F)(F)F)cc4)cc(C(F)(F)F)n3)ccn2)c1 [Example 382, N-(2-Hydroxy-1,1-dimethyl-ethyl)-3-{4-[4-trifluoromethyl-6-(4-trifluoromethyl-phenyl)-pyrimidin-2-yl]-pyridin-2-yl}-benzenesulfonamide]",221 °C
15,"O=S(=O)(c1cccc(-c2cc(-c3nc(-c4ccc(C(F)(F)F)cc4)cc(C(F)(F)F)n3)ccn2)c1)N(CCO)CCO [Example 383, N,N-Bis-(2-hydroxy-ethyl)-3-{4-[4-trifluoromethyl-6-(4-trifluoromethyl-phenyl)-pyrimidin-2-yl]-pyridin-2-yl}-benzenesulfonamide]",186 °C
16,"NS(=O)(=O)c1ccc(-c2cn(-c3nc(-c4ccc(F)c(F)c4)cc(C(F)(F)F)n3)cn2)s1 [Example 385, 5-{1-[4-(3,4-Difluoro-phenyl)-6-trifluoromethyl-pyrimidin-2-yl]-1H-imidazol-4-yl}-thiophene-2-sulfonic acid amide]",228 °C
17,"NS(=O)(=O)c1ccc(-c2cn(-c3nc(-c4ccc(F)cc4)cc(C(F)(F)F)n3)cn2)s1 [Example 386, 5-{1-[4-(4-Fluoro-phenyl)-6-trifluoromethyl-pyrimidin-2-yl]-1H-imidazol-4-yl}-thiophene-2-sulfonic acid amide]",244.5 °C
18,"NS(=O)(=O)c1cccc(-c2cn(-c3nc(-c4ccc(F)cc4)cc(C(F)(F)F)n3)cn2)c1 [Example 387, 3-{1-[4-(4-Fluoro-phenyl)-6-trifluoromethyl-pyrimidin-2-yl]-1H-imidazol-4-yl}-benzenesulfonamide]",260 °C
19,"NS(=O)(=O)c1ccc(-c2cccc(-c3nc(-c4ccc(F)c(F)c4)cc(C(F)(F)F)n3)c2)s1 [Example 388, 5-{3-[4-(3,4-Difluoro-phenyl)-6-trifluoromethyl-pyrimidin-2-yl]-phenyl}-thiophene-2-sulfonic acid amide]",238 °C
20,"O=S(=O)(NCCO)c1cccc(-c2cccc(-c3nc(-c4ccc(C(F)(F)F)cc4)cc(C(F)(F)F)n3)c2)c1 [Example 391, 3′-[4-Trifluoromethyl-6-(4-trifluoromethyl-phenyl)-pyrimidin-2-yl]-biphenyl-3-sulfonic acid (2-hydroxy-ethyl)-amide]",153 °C
21,"O=S(=O)(c1cccc(-c2cccc(-c3nc(-c4ccc(C(F)(F)F)cc4)cc(C(F)(F)F)n3)c2)c1)N(CCO)CCO [Example 392, 3′-[4-Trifluoromethyl-6-(4-trifluoromethyl-phenyl)-pyrimidin-2-yl]-biphenyl-3-sulfonic acid bis-(2-hydroxy-ethyl)-amide]",111.5 °C
22,"NS(=O)(=O)c1cccc(-c2cccc(-c3nc(-c4ccc(F)c(F)c4)cc(C(F)(F)F)n3)c2)c1 [Example 393, 3′-[4-(3,4-Difluoro-phenyl)-6-trifluoromethyl-pyrimidin-2-yl]-biphenyl-3-sulfonic acid amide]",211 °C
23,"NS(=O)(=O)c1ccc(-c2cccc(-c3nc(-c4ccc(F)cc4)cc(C(F)(F)F)n3)c2)s1 [Example 395, 5-{3-[4-(4-Fluoro-phenyl)-6-trifluoromethyl-pyrimidin-2-yl]-phenyl}-thiophene-2-sulfonic acid amide]",228.5 °C
